Source: patent US20050261290A1, “Novel compounds of proline and morpholine derivatives” (priority 2004, published 2005)
Where two headings read alike, the source gives them in different places.

Molecular target: human 11b-hsd-1 (Homo sapiens, UniProt P28845)
Test: Inhibition constant Ki of human 11b-hsd-1 (3H-cortisone to 3H-cortisol conversion, HPLC)
Format: biochemical
Details: for Ki: apparent Ki, read-out: Ki app

Chain of human 11b-hsd-1 (P28845 whole entry): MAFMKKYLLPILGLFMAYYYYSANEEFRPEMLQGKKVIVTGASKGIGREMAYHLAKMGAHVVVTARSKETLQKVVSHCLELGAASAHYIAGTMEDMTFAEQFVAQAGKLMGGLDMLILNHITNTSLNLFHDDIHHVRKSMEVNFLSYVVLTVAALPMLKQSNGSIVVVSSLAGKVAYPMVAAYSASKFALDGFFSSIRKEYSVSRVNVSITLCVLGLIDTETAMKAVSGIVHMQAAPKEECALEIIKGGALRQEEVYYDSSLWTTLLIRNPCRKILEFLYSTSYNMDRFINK

Row | Compound | inhibition at 0.1 µM (0.1 μM compound) | Ki | Ki (human 11b-hsd-1) | inhibition at 0.1 µM (compound at 0.1 μM) | % inh @ 0.1 μM (compound at 0.1 μM, 0.1 µM)
1 | O=C(NC1C2CC3CC(C2)CC1C3)[C@@H]1C[C@H](Oc2cccc(F)c2)CN1 (stereo partly drawn) [Example 319] | 100% | 1.7 nM |  |  | 
2 | CC(C)Oc1ccccc1O[C@@H]1CN[C@H](C(=O)NC2C3CC4CC(C3)CC2C4)C1 (stereo partly drawn) [Example 364] | 100% | 4.6 nM |  |  | 
3 | O=C(NCc1ccc(F)cc1F)[C@H]1COCCN1Cc1ccccc1 [Example 280] | 81.6% | 49 nM |  |  | 
4 | O=C(NC12CC3CC(CC(C3)C1)C2)[C@@H]1[C@H]2CC[C@H](C2)N1Cc1ccc(Cl)cc1 (racemic) [Example 204] | 100% | 1 nM |  |  | 
5 | CC(C)CN1CCOC[C@@H]1C(=O)NC1CCCCC1 [Example 332] | 100% | 2.2 nM |  |  | 
6 | CC(C)CN1CCOC[C@@H]1C(=O)NCc1ccccc1F [Example 57] |  |  | 23.4 nM | 81% | 
7 | N#Cc1ccc(CN2CCC[C@@H]2C(=O)NC23CC4CC(CC(C4)C2)C3)cc1 [Example 254] | 100% | 1 nM |  |  | 
8 | CN(C(=O)[C@H]1CSCN1Cc1ccc(Cl)cc1)C1CCCCC1 [Example 194] | 86.2% | 25 nM |  |  | 
9 | O=C(NC12CC3CC(CC(C3)C1)C2)[C@H]1CSCN1Cc1ccc(Cl)cc1 [Example 202] | 100% | 4.8 nM |  |  | 
10 | CC(C)CN1CCC[C@@H]1C(=O)N[C@H](C)c1ccc(Cl)cc1 [Example 298] | 100% | 1.77 nM |  |  | 
11 | CC(C)CN1CCC[C@@H]1C(=O)NC12CC3CC(CC(C3)C1)C2 [Example 205] | 100% | 3.17 nM |  |  | 
12 | O=C(NC1C2CC3CC(C2)CC1C3)[C@H]1COCCN1Cc1ccccc1 (stereo partly drawn) [Example 2] |  |  | 2.4 nM | 100% | 
13 | Cc1ccccc1CNC(=O)[C@H]1CCCN1Cc1ccc(Cl)cc1 [Example 268] | 100% | 10 nM |  |  | 
14 | CC(=O)N1CCC(CN2CCC[C@@H]2C(=O)NC2C3CC4CC(C3)CC2C4)CC1 (stereo partly drawn) [Example 139] |  |  |  | 100% | 
15 | CC(C)N1CCC(CN2CCOC[C@@H]2C(=O)NC2C3CC4CC(C3)CC2C4)CC1 (stereo partly drawn) [Example 73] |  |  |  | 83% | 
16 | CC1(C(=O)NC2CCCCC2)CCCN1Cc1ccc(C#N)cc1 (stereo not drawn) [Example 59] |  |  | 22 nM | 71% | 
17 | CC(C)CN1CCOC[C@@H]1C(=O)NCC1CCCCC1 [Example 336] | 100% | 1 nM |  |  | 
18 | COc1ccccc1CNC(=O)[C@H]1CCCN1CC1CCCC1 [Example 261] | 100% | 25 nM |  |  | 
19 | CNCCN1CCC[C@@H]1C(=O)NC1C2CC3CC(C2)CC1C3 (stereo partly drawn) [Example 111] |  |  |  | 96% | 
20 | CCCN1CCOC[C@@H]1C(=O)NCC1CCCCC1 [Example 335] | 100% | 6.9 nM |  |  | 
21 | CC(C)(O)CN1CCC[C@@H]1C(=O)NC1CCCCC1 [Example 87, 1-(2-Hydroxy-2-methyl-propyl)-pyrrolidine-2-carboxylic acid cyclohexylamide] |  |  |  | 54% | 

Row | Compound | inhibition at 0.1 µM (0.1 μM compound) | Ki | Ki (human 11b-hsd-1) | inhibition at 0.1 µM (compound at 0.1 μM) | % inh @ 0.1 μM (compound at 0.1 μM, 0.1 µM)
22 | O=C(NCc1ccccc1Cl)[C@H]1CCCN1CCc1ccccc1 [Example 271] | 83.8% | 26 nM |  |  | 
23 | O=C(NCc1ccccc1)[C@H]1CCCN1CC1CCCC1 [Example 226] | 82.2% | 22 nM |  |  | 
24 | O=C(NC1C2CC3CC(C2)CC1C3)[C@H]1COCCN1Cc1ccccn1 (stereo partly drawn) [Example 67] |  |  | 1 nM | 100% | 
25 | N#Cc1ccc(CN2CCOC[C@@H]2C(=O)N[C@@H]2CCCc3ccccc32)cc1 [Example 315] | 96.1% | 6.63 nM |  |  | 
26 | CC1(C)CC(NC(=O)C2COCCN2Cc2ccccc2)CC(C)(C)C1 (stereo not drawn) [Example 186] |  |  | 1 nM | 100% | 
27 | CN(Cc1ccc(F)cc1)C(=O)[C@H]1COCCN1Cc1ccc(C#N)cc1 [Example 36] |  |  | 21.4 nM | 90% | 
28 | O=C(NC1C2CC3CC(C2)CC1C3)[C@@H]1C[C@H](Oc2cc(F)c(F)c(F)c2)CN1 (stereo partly drawn) [Example 362] | 100% | 1.1 nM |  |  | 
29 | CC(C)CN1CCC[C@@H]1C(=O)NCc1ccc(F)cc1 [Example 222] | 100% | 6.9 nM |  |  | 
30 | CC(C)OCCN1CCC[C@@H]1C(=O)NC1CCCCC1 [Example 96] |  |  | 39 nM | 84% | 
31 | CC(C)CN1CCC[C@@H]1C(=O)N[C@@H]1CCc2ccccc21 [Example 291] | 100% | 1 nM |  |  | 
32 | CC(C)CN1CSC[C@@H]1C(=O)N(C)C1CCCCC1 [Example 196] | 85.3% | 27 nM |  |  | 
33 | O=C(NCc1ccc(F)cc1)[C@H]1CCCN1CC1CC1 [Example 225] | 86.2% | 153 nM |  |  | 
34 | CCN1CCC[C@@H]1C(=O)NC1CCCCC1C (stereo partly drawn) [Example 58] |  |  | 28 nM | 70% | 
35 | O=C(NC12CC3CC(CC(C3)C1)C2)[C@H]1CCCN1CC1CCCCC1 [Example 9, N-1-adamantyl-1-(cyclohexylmethyl)-D-prolinamide] |  |  | 1.7 nM | 100% | 
36 | CCCN1CCCC1(C)C(=O)NC1CCCCC1 (stereo not drawn) [Example 60] |  |  | 25 nM | 79% | 
37 | O=C(NC1CCCCC1)[C@H]1CCCN1CC1CCCO1 (stereo partly drawn) [Example 97] |  |  | 7 nM |  | 100%
38 | CCC1CCCCN1C(=O)C1CCCCN1Cc1ccc(Cl)cc1 (stereo not drawn) [Example 199] | 80.2% | 32 nM |  |  | 
39 | O=C(NC12CC3CC(CC(C3)C1)C2)C1COCCN1CC1CCOCC1 (stereo not drawn) [Example 184] |  |  | 3.2 nM | 100% | 
40 | CCCN1CCC[C@@H]1C(=O)N[C@@H]1C[C@H]2CC[C@@H]1C2 [Example 89] |  |  |  | 92% | 
41 | O=C(NC1C2CC3CC(C2)CC1C3)[C@H]1COCCN1CCO (stereo partly drawn) [Example 66] |  |  | 10 nM | 89% | 
42 | CC(C)CN1CCOC[C@@H]1C(=O)N(C)Cc1ccc(F)cc1 [Example 37] |  |  | 39.3 nM | 100% | 

Row | Compound | inhibition at 0.1 µM (0.1 μM compound) | Ki | Ki (human 11b-hsd-1) | inhibition at 0.1 µM (compound at 0.1 μM) | % inh @ 0.1 μM (compound at 0.1 μM, 0.1 µM)
43 | CC(C)(C)OC(=O)N1CCCC(C(=O)Nc2ccc3ncccc3n2)C1 (stereo not drawn) [Example 164] |  |  |  | 11% | 
44 | N#Cc1ccc(CN2CCOC[C@@H]2C(=O)NC2C3CC4CC(C3)CC2C4)cc1 (stereo partly drawn) [Example 62] |  |  | 1.1 nM | 100% | 
45 | Cc1cc(O[C@@H]2CN[C@H](C(=O)NC3C4CC5CC(C4)CC3C5)C2)ccc1F (stereo partly drawn) [Example 351] | 100% | 1 nM |  |  | 
46 | CN(C(=O)[C@H]1COCCN1Cc1ccccc1)C1CCCCC1 [Example 303] | 50% | 4.4 nM |  |  | 
47 | CC12C3C4C1C1C2C3C41NC(=O)[C@H]1CCCN1 (stereo partly drawn) [Example 143] |  |  |  | 10% | 
48 | O=C(NC12CC3CC(CC(C3)C1)C2)C1COCCN1Cc1ccccc1 (stereo not drawn) [Example 178] |  |  | 1 nM | 100% | 
49 | CC(=O)N1CCC[C@@H]1C(=O)NC1C2CC3CC(C2)CC1C3 (stereo partly drawn) [Example 18, N-2-adamantyl-1-acetyl-D-prolinamide] |  |  | 16.4 nM | 85% | 
50 | O=C(N[C@H]1c2ccccc2C[C@H]1O)[C@H]1COCCN1Cc1ccccc1 [Example 301] | 89.2% | 11.1 nM |  |  | 
51 | CCCN1CCC[C@@H]1C(=O)NC1CCCCC1C (stereo partly drawn) [Example 55] |  |  | 3.7 nM | 100% | 
52 | CC(C)CN1CCC[C@@H]1C(=O)NC1CCC(F)(F)CC1 [Example 136] |  |  |  | 100% | 
53 | O=C(NC1Cc2ccccc2C1)[C@H]1CCCN1CC1CCCC1 [Example 294] | 100% | 8.52 nM |  |  | 
54 | Cc1ccc(CNC(=O)[C@H]2CCCN2CC(C)C)cc1 [Example 259] | 100% | 11 nM |  |  | 
55 | CN(C(=O)C1CCCCN1Cc1ccc(Cl)cc1)C1CCCCC1 (stereo not drawn) [Example 193] | 100% | 14 nM |  |  | 
56 | Cc1ccccc1O[C@@H]1CN[C@H](C(=O)NC2C3CC4CC(C3)CC2C4)C1 (stereo partly drawn) [Example 320] | 100% | 5.5 nM |  |  | 
57 | Cc1ccccc1CNC(=O)[C@H]1CCCN1Cc1ccccc1 [Example 246] | 87.7% | 16 nM |  |  | 
58 | O=C(NCC1(O)CCCCCC1)[C@H]1CCCN1CC1CCCC1 [Example 68] |  |  | 2 nM | 93.5% | 
59 | O=C(NC1C2CC3CC(C2)CC1C3)[C@H]1COCCN1CC1CCCC1 (stereo partly drawn) [Example 63] |  |  | 1 nM | 100% | 
60 | CC(C)CN1CCOC[C@@H]1C(=O)NC1C2CC3CC(C2)CC1C3 (stereo partly drawn) [Example 64] |  |  | 1.3 nM | 100% | 
61 | O=C(NCc1ccccc1)C1COCCN1CC1CCCCC1 (stereo not drawn) [Example 322] | 62.5% | 45 nM |  |  | 
